Assay results from ChEMBL document CHEMBL1153260, “The synthesis of aminobenzazepinones as anti-phenylalanine dipeptide mimics and their use in nep inhibition” (Bioorg Med Chem Lett, 1996).

The compounds below were run against T1, Neprilysin (Rattus norvegicus, UniProt P07861) (assay: Compound was tested for inhibition of neutral endopeptidase (NEP).).
T1 sequence (P07861 whole entry): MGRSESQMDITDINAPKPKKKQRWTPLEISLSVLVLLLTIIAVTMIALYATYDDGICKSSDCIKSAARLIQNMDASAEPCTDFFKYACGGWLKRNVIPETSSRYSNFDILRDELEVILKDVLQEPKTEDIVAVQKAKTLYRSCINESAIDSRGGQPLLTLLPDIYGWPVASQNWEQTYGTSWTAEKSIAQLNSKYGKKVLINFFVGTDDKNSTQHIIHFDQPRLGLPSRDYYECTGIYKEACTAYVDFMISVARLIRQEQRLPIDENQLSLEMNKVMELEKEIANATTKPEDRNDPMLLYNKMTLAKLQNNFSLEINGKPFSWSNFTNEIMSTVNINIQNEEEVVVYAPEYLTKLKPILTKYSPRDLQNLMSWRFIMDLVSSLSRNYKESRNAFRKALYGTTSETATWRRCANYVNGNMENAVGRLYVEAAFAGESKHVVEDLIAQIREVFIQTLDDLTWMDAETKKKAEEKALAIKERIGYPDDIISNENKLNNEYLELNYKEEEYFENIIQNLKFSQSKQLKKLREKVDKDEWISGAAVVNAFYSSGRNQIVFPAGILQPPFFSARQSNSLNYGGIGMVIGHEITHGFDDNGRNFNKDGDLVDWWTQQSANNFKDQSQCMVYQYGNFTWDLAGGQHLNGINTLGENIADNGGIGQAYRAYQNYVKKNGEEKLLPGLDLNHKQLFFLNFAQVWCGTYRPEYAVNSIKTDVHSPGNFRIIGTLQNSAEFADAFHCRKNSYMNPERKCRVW

Compound	Ki [nM]
CC(C)C[C@@H](C(=O)O)N1Cc2ccccc2C[C@H](NC(=O)[C@H](S)Cc2ccccc2)C1=O	0.4
CC(C)CC(C(=O)O)N1CCO[C@@H](c2ccccc2)[C@H](NC(=O)[C@H](S)Cc2ccccc2)C1=O (single isomer, unassigned)	330
O=C(O)C1CCCC2c3ccccc3C[C@H](NC(=O)[C@H](S)Cc3ccccc3)C(=O)N12 (stereo partly drawn)	0.07
